Target: T1, human zDHHC3 (Homo sapiens, UniProt Q9NYG2)
T1 construct: expressed in transfected cells; host or cells: HEK293T
T1 sequence (Q9NYG2 1-299): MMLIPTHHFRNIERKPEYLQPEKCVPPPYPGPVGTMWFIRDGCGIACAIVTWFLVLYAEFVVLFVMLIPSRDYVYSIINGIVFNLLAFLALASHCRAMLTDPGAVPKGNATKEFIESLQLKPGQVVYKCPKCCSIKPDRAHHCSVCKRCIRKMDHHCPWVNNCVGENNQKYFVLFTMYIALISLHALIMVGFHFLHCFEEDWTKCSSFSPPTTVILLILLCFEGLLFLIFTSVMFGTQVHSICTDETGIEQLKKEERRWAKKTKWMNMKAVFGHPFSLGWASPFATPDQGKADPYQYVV
Assay: GFP-SNAP25b S-acylation in HEK293T cells co-expressing zDHHC3
Assay type: cell-based
Conditions: in cellulo HEK293T, compound 25 μM; for inhibition at 25 µM: HEK-293T, read-out: SNAP25 S-acylation inhibition (%), zDHHC3
Description: We next investigated whether the identified compounds were effective at inhibiting zDHHC enzyme isoforms other than zDHHC2 (Fig. 6 and Table 1). […] We therefore treated cells coexpressing GFP-SNAP25 and each of these zDHHC enzymes with 25 μM of TTZ-1 and TTZ-2 and studied the subsequent effect on SNAP25 S-acylation. […] Importantly, the level of enzyme expression was unaffected by the compounds. […] As any major differences in the expression levels of the different enzymes could in theory contribute to the apparent differential effects of TTZ-1 and TTZ-2, we directly compared the expression of zDHHC2, zDHHC3, zDHHC7, zDHHC15, and zDHHC17 when transfected in HEK293T cells together with GFP-SNAP25.
Figure 6 Activity of TTZ-1 and TTZ-2 against SNAP25 S-acylation by human zDHHC2, zDHHC3, zDHHC7, zDHHC15, and zDHHC17 expressed in mammalian cells.A–E, HEK293T cells were transfected with a plasmid encoding GFP-SNAP25b together with either a control plasmid pEF-BOS-HA (pEF) or a plasmid encoding either HA-tagged human zDHHC2 (zD2) (A), zDHHC3 (zD3) (B), zDHHC7 (zD7) (C), zDHHC15 (zD15) (D), or zDHHC17 (zD17) (E) for 24 h. Cells were then preincubated for 4 h with TTZ-1 or TTZ-2 (25 μM final) or DMSO control before metabolic labeling with 100 μM C16:0-azide for 4 h. Cells were lysed, and proteins having incorporated C16:0-azide were labeled by click chemistry with an alkyne-IR800 dye. Protein samples were then resolved by SDS-PAGE and transferred to nitrocellulose membranes that were first stained with an infrared-680 total protein stain. Membranes were then destained and probed with an anti-HA antibody (IR680), followed by an anti-GFP antibody (IR680). Representative images are shown, and panels are presented in the following order (from top to bottom): click chemistry signal (Click [IR800]), GFP and HA immunoblots (IR680), and Total Protein Stain (IR680). […] Three independent experiments were performed either in duplicate or in triplicate, and the quantification data were gathered on the graphs below each set of membranes. […]

## O=C(Nc1cccc2c1OC(c1nnn[nH]1)CN2)c1ccc(OCCCCc2ccccc2)cc1 (stereo not drawn) [TTZ-2, N-(2-(1H-Tetrazol-5-yl)-3,4-dihydro-2H-benzo[b][1,4]oxazin-8-yl)-4-(4-phenylbutoxy)benzamide]
  inhibition at 25 µM: 19 ± 3%

## CCCCCCCOc1ccc(C(=O)Nc2cccc3c2OC(c2nnn[nH]2)CN3)cc1 (stereo not drawn) [TTZ-1, N-(2-(1H-Tetrazol-5-yl)-3,4-dihydro-2H-benzo[b][1,4]oxazin-8-yl)-4-(heptyloxy)benzamide]
  inhibition at 25 µM: 9 ± 4%
  SNAP25 S-acylation inhibition (%), zDHHC3: no significant effect

Reference: paper PMC9558053, “Development of a novel high-throughput screen for the identification of new inhibitors of protein S-acylation” (The Journal of Biological Chemistry, 2022)
